Results taken from US12377176B2, “Cancer diagnostic imaging agents” (Technische Universität München, priority 2019, dated 2025).
“And” between values parts separate entries of the source, which are not always exact repeats. Equal entries are not always repeated. Where two headings read alike, the source gives them in different places.

Columns and labels:
HSA [1] = target: T1, HSA (Homo sapiens, UniProt P02768); assay: HSA binding on Chiralpak HSA column; format: in vitro ADME; conditions: for Log K HSA: logarithmic K of human serum albumin binding, calibration reference; for HSA Binding: Chiralpak HSA column (50 × 3 mm, 5 μm), (n = 6)
T1 construct: purchased H13H-2433
T1 sequence (P02768 25-609): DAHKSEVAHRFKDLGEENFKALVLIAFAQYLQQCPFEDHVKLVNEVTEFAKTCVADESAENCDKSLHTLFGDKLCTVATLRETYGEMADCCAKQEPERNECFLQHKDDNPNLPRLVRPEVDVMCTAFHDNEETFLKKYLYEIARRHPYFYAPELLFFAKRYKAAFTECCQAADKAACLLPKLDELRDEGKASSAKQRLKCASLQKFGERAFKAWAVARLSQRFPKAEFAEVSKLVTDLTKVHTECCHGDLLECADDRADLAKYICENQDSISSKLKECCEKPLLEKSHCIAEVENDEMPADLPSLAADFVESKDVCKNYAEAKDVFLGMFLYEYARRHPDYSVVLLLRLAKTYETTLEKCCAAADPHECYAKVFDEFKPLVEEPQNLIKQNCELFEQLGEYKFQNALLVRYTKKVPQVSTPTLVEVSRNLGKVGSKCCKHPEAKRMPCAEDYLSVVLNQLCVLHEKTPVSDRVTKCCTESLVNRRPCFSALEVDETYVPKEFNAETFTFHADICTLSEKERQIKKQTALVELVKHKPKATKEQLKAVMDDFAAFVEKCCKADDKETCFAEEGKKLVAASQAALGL
Protocol: The mobile phase (A: NH4OAc, 50 mM in water, pH 7 and B: isopropanol) was freshly prepared for each experiment and only used for one day. The column was kept at room temperature and each run was stopped after detection of the signal to reduce the acquisition time. All substances were dissolved in a 0.5 mg/ml concentration in 50% 2-propanol and 50% 50 mM pH 6.9 ammonium acetate buffer. […] All nine reference substances were injected consecutively to establish a non-linear regression with Origin Pro 2016G.

HSA [2] = target: T1, HSA; conditions: literature value of human serum albumin binding (Yamazaki 2004); calibration reference; cited from earlier work
PSMA = target: T2, PSMA (Homo sapiens, UniProt Q04609); assay: Determination of IC50: PSMA affinity, competition with ([125I]I-BA)KuE on LNCaP cells; format: binding
T2 construct: endogenous in cells; host or cells: LNCaP cells
T2 sequence (Q04609 whole entry): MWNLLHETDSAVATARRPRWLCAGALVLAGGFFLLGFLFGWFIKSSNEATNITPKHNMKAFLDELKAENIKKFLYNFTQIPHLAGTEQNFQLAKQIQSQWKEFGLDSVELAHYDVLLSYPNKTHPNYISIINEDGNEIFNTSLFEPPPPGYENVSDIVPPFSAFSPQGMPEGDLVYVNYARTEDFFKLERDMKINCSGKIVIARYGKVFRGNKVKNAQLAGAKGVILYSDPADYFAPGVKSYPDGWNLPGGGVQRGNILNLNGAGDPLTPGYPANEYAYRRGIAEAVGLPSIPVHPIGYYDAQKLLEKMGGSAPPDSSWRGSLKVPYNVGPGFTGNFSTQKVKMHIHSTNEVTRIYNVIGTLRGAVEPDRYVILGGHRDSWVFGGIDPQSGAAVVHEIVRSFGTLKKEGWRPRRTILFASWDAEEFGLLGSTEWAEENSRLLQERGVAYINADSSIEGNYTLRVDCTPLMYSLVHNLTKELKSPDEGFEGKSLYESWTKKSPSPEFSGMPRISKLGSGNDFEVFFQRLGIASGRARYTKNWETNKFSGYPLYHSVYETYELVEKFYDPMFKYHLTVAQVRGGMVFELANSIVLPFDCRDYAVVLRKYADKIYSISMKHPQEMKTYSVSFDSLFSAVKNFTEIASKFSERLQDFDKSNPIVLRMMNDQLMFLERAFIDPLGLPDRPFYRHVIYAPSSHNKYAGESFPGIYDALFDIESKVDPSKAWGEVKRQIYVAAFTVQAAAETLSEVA
Protocol: After removal of the culture medium, the cells were treated once with 500 μL of HBSS (Hank's balanced salt solution, Biochrom, Berlin, Germany, with addition of 1% bovine serum albumin (BSA)) and left 15 min on ice for equilibration in 200 μL HBSS (1% BSA). […] Quantification of bound and free radioligand was accomplished in a γ-counter.

LNCaP cells = assay: Internalization into LNCaP cells, relative to ([125I]I-BA)KuE; format: cell-based; conditions: for internalization rate Mean / individual internalization rates: LNCaP cells, 1 h, 37 °C, c=0.5 nM; for individual internalization rates: single measurements
Protocol: Data is corrected for non-specific binding ([…]) and expressed as mean±SD (n=3).
Subsequent to the removal of the culture medium, the cells were washed once with 500 μL DMEM-F12 (5% BSA) and left to equilibrate for at least 15 min at 37° C. in 200 μL DMEM-F12 (5% BSA). Each well was treated with either 25 μL of either DMEM-F12 (5% BSA) or a 100 μM PMPA solution for blockade. Next, 25 μL of the ^68Ga/^18F-labeled PSMA inhibitor (5.0 nM) was added and the cells incubated at 37° C. for 60 min. The experiment was terminated by placing the 24-well plate on ice for 3 min and consecutive removal of the medium. Each well was rinsed with 250 μL HBSS and the fractions from these first two steps combined, representing the amount of free radioligand. Removal of surface bound activity was accomplished by incubation of the cells with 250 μL of ice-cold PMPA (10 μM in PBS) solution for 5 min and rinsed again with another 250 μL of ice-cold PBS. The internalized activity was determined by incubation of the cells in 250 μL 1 M NaOH and the combination with the fraction of a subsequent wash step with 250 μL 1.0 M NaOH. Each experiment (control and bloackde) was performed in triplicate. Free, surface bound and internalized activity was quantified in a γ-counter. […] Data were corrected for non-specific internalization and normalized to the specific-internalization observed for the radioiodinated reference compound.

[3] = system: LNCaP tumor-bearing CB-17 SCID mice; conditions: male, mouse, in vivo, 1 h
Protocol: To establish tumor xenografts, LNCaP cells (10^7 cells/200 μL) were suspended in a 1:1 mixture (v/v) of Dulbecco modified Eagle medium/Nutrition Mixture F-12 with Glutamax-I (1:1) and Matrigel (BD Biosciences, Germany), and inoculated subcutaneously onto the right shoulder of 6-8 weeks old CB17-SCID mice (Charles River, Sulzfeld, Germany). Mice were used for when tumors had grown to a diameter of 5-8 mm (3-4 weeks after inoculation).
Approximately 1-2 MBq (<0.2 nmol) of the ^18F-labeled PSMA inhibitor was injected into the tail vein of LNCaP tumor-bearing male CB-17 SCID mice and sacrificed after 1 h post injection (n=4-5). Selected organs were removed, weighted and measured in a γ-counter

[4] = Octanol-water partition coefficient (n-octanol/PBS pH 7.4); format: physicochemical
Protocol: Approximately 1 MBq of the labeled tracer was dissolved in 1 mL of a 1:1 mixture (by volumes) of phosphate buffered saline (PBS, pH 7.4) and n-octanol in an Eppendorf tube. After vigorous mixing of the suspension for 3 minutes at room temperature, the vial was centrifuged at 15000 g for 3 minutes (Biofuge 15, Heraus Sepatech, Osterode, Germany) and 100 μL aliquots of both layers were measured in a gamma counter. The experiment was repeated at least six times.
Determianation of the logP values was carried out in phosphate buffered saline (PBS, pH 7.4) and n-octanol (=logPoct/PBS).

[5] = Wängler et al., Bioconjug Chem. 2010; cited from earlier work
[6] = LNCaP cells, [125I]IB-KuE 0.2 nM, 1 h, 4 °C, HBSS+1% BSA, single measurements, read-out: individual IC50 measurements
[7] = LNCaP cells, [125I]IB-KuE 0.2 nM, 1 h, 4 °C, mean of the individual measurements, read-out: IC50 Mean
[8] = mean ± SD as quoted in the discussion

In the case of `Nc1ccccc1` [Aniline], the “Log K HSA” value (HSA [1]) is listed as −0.79 and the “Lit. HSA %” value (HSA [2]) is listed as 14.06%.
In the case of `O=C(O)c1ccccc1` [Benzoic Acid], the “Lit. HSA %” value (HSA [2]) is listed as 34.27%.
For `O=C(O)CC[C@H](NC(=O)N[C@@H](CCCCNC(=O)c1ccc(F)nc1)C(=O)O)C(=O)O` [DCFPyL], the “HSA Binding” value (HSA [1]) was 14.3%.
In the case of `COc1ccc(Cl)cc1C(=O)NCCc1ccc(S(=O)(=O)NC(=O)NC2CCCCC2)cc1` [Glibenclamide], the “Log K HSA” value (HSA [1]) is given as 1.69 and the “Lit. HSA %” value (HSA [2]) is given as 99.00%.
For `Oc1ccccc1` [Phenol], the “Log K HSA” value (HSA [1]) is listed as −0.59 and the “Lit. HSA %” value (HSA [2]) is listed as 20.69%.
In the case of `CCCN(CCC)S(=O)(=O)c1ccc(C(=O)O)cc1` [Probenecid], the “Lit. HSA %” value (HSA [2]) is listed as 95.00%.
For `O=[N+]([O-])c1ccc(O)cc1` [p-nitrophenol], the “Lit. HSA %” value (HSA [2]) is listed as 77.65%.
With `CC(C)(C)[Si](F)(c1ccc(C(=O)NC[C@@H](NC(=O)CC[C@H](C(=O)O)N2CCN(CC(=O)O)CCN(CC(=O)O)CCN(CC(=O)O)CC2)C(=O)N[C@H](CCCCNC(=O)CCC(=O)NCCC[C@@H](NC(=O)CC[C@H](NC(=O)N[C@@H](CCC(=O)O)C(=O)O)C(=O)O)C(=O)O)C(=O)O)cc1)C(C)(C)C` [rhPSMA7.1, [^19F][^natGa]D-Dap-R-DOTAGA-rhPSMA7, metal not drawn] the IC50 (PSMA; [6]) was 5.04 nM and 7.11 nM and 8.31 nM and 4.97 nM and 6.44 nM and 8.74 nM and 6.91 nM and 7.27 nM, the IC50 (PSMA; [7]) was 6.85 nM and the “internalization rate Mean” value (LNCaP cells) was 69.55 % of [^125I]IB-KuE. The individual internalization rates (LNCaP cells) was 77.5 % of [^125I]IB-KuE and 61.8 % of [^125I]IB-KuE and 70.6 % of [^125I]IB-KuE and 68.0 % of [^125I]IB-KuE and 67.9 % of [^125I]IB-KuE and 71.5 % of [^125I]IB-KuE, the internalization (LNCaP cells; [8]) was 69.55%±5.29 and the “HSA Binding” value (HSA [1]) was 97.7%. The Biodistribution adrenals [3] was 2.0 ± 0.25 % ID/g, the Biodistribution blood [3] was 0.53 ± 0.13 % ID/g and the Biodistribution bone [3] was 0.50 ± 0.31 % ID/g. For the same molecule, the Biodistribution heart [3] was 0.53 ± 0.03 % ID/g, the Biodistribution intestine [3] was 0.30 ± 0.16 % ID/g and the Biodistribution kidneys [3] was 220 ± 24.8 % ID/g. The Biodistribution liver [3] was 0.75 ± 0.62 % ID/g, the Biodistribution lung [3] was 1.1 ± 0.21 % ID/g and the Biodistribution muscle [3] was 0.32 ± 0.30 % ID/g. For the same molecule, the Biodistribution pancreas [3] was 0.45 ± 0.12 % ID/g, the Biodistribution spleen [3] was 20.0 ± 4.2 % ID/g and the Biodistribution stomach [3] was 0.28 ± 0.17 % ID/g. It also gave a Biodistribution tumor [3] of 14.1 ± 4.1 % ID/g.
In the case of `CC(C)(C)[Si](F)(c1ccc(C(=O)NC[C@H](NC(=O)CC[C@H](C(=O)O)N2CCN(CC(=O)O)CCN(CC(=O)O)CCN(CC(=O)O)CC2)C(=O)N[C@H](CCCCNC(=O)CCC(=O)NCCC[C@@H](NC(=O)CC[C@H](NC(=O)N[C@@H](CCC(=O)O)C(=O)O)C(=O)O)C(=O)O)C(=O)O)cc1)C(C)(C)C` [rhPSMA7.2, [^19F][^natGa]L-Dap-R-DOTAGA-rhPSMA7, metal not drawn], the IC50 (PSMA; [6]) is reported as 2.64 nM and 2.76 nM and 3.94 nM and 5.8 nM and 4.31 nM and 4.32 nM and 3.17 nM and 2.97 nM and 3.36 nM, the IC50 (PSMA; [7]) is reported as 3.7 nM and the “individual log P measurements” value ([4]; octanol/PBS7.4, single measurements) is reported as −3.00 and −3.02 and −3.06 and −3.45. The logP ([4]; pH 7.4, log P) was -3.13 ± 0.22, the logP ([4]; pH 7.4, log P Mean) was -3.13 and the “internalization rate Mean” value (LNCaP cells) was 191.83 % of [^125I]IB-KuE. For the same molecule, the individual internalization rates (LNCaP cells) was 192.3 % of [^125I]IB-KuE and 188.7 % of [^125I]IB-KuE and 182.7 % of [^125I]IB-KuE and 169.5 % of [^125I]IB-KuE and 205.3 % of [^125I]IB-KuE and 212.6 % of [^125I]IB-KuE, the internalization (LNCaP cells; [8]) was 191.83%±15.54 and the “HSA Binding” value (HSA [1]) was 97.8%. The Biodistribution adrenals [3] was 1.3 ± 0.8 % ID/g, the Biodistribution blood [3] was 0.56 ± 0.20 % ID/g and the Biodistribution bone [3] was 0.31 ± 0.24 % ID/g. The Biodistribution heart [3] was 0.32 ± 0.13 % ID/g, the Biodistribution intestine [3] was 0.18 ± 0.07 % ID/g and the Biodistribution kidneys [3] was 87.6 ± 28.8 % ID/g. The Biodistribution liver [3] was 0.35 ± 0.08 % ID/g, the Biodistribution lung [3] was 0.89 ± 0.38 % ID/g and the Biodistribution muscle [3] was 0.13 ± 0.07 % ID/g. It also gave a Biodistribution pancreas [3] of 0.21 ± 0.08 % ID/g, a Biodistribution spleen [3] of 10.1 ± 6.3 % ID/g and a Biodistribution stomach [3] of 0.19 ± 0.08 % ID/g. For the same molecule, the Biodistribution tumor [3] was 6.5 ± 2.3 % ID/g.
With `CC(C)(C)[Si](F)(c1ccc(C(=O)NC[C@H](NC(=O)CC[C@@H](C(=O)O)N2CCN(CC(=O)O)CCN(CC(=O)O)CCN(CC(=O)O)CC2)C(=O)N[C@H](CCCCNC(=O)CCC(=O)NCCC[C@@H](NC(=O)CC[C@H](NC(=O)N[C@@H](CCC(=O)O)C(=O)O)C(=O)O)C(=O)O)C(=O)O)cc1)C(C)(C)C` [rhPSMA7.4, [^19F][^natGa]L-Dap-S-DOTAGA-rhPSMA7, metal not drawn] the IC50 (PSMA; [6]) was 3.4 nM and 3.56 nM and 2.79 nM and 4.57 nM and 3.78 nM, the IC50 (PSMA; [7]) was 3.62 nM and the “internalization rate Mean” value (LNCaP cells) was 207.33 % of [^125I]IB-KuE. For the same molecule, the individual internalization rates (LNCaP cells) was 209.6 % of [^125I]IB-KuE and 202.6 % of [^125I]IB-KuE and 209.8 % of [^125I]IB-KuE, the internalization (LNCaP cells; [8]) was 207.33±4.06% and the “HSA Binding” value (HSA [1]) was 96.6%. It also gave a Biodistribution adrenals [3] of 3.57 ± 2.38 % ID/g, a Biodistribution blood [3] of 1.15 ± 0.30 % ID/g and a Biodistribution bone [3] of 0.62 ± 0.30 % ID/g. For the same molecule, the Biodistribution heart [3] was 0.71 ± 0.26 % ID/g, the Biodistribution intestine [3] was 0.37 ± 0.09 % ID/g and the Biodistribution kidneys [3] was 153 ± 80.3 % ID/g. It also gave a Biodistribution liver [3] of 0.69 ± 0.20 % ID/g, a Biodistribution lung [3] of 1.59 ± 0.61 % ID/g and a Biodistribution muscle [3] of 0.31 ± 0.08 % ID/g. The Biodistribution pancreas [3] was 0.50 ± 0.30 % ID/g, the Biodistribution spleen [3] was 18.4 ± 9.77 % ID/g and the Biodistribution stomach [3] was 0.25 ± 0.06 % ID/g. It also gave a Biodistribution tumor [3] of 18.9 ± 3.27 % ID/g.
For PSMA-1007 [reference compound], the IC50 (PSMA; other selected PSMA inhibitors, own lab, identical binding assay (Robu et al. 2018), read-out: IC50) was 4.2 ± 0.5 nM, the “log P” value ([4]; octanol/PBS7.4, (n = 6)) was −1.6 and the internalization (LNCaP cells; other selected PSMA inhibitors, own lab, identical assay (Robu et al. 2018)) was 118 ± 4 % of [^125I]IB-KuE. For the same molecule, the “HSA Binding” value (HSA [1]) was 97.8%.
In the case of “SIFA-Asn(AcNH-β-Glc)-PEG-Tyr^3-octreotate”, the “log P(ow)” value [5] is given as 0.96.
In the case of SIFA-Asn(AcNH-β-Glc)-Tyr^3-octreotate, the “log P(ow)” value [5] is given as 1.23.
